Experimental data reported in patent publication US20240217978A1 (CHONG KUN DANG PHARMACEUTICAL CORP., priority 2021, published 2024).

The compounds below were run against human adenosine A2a receptor (Homo sapiens (Human), UniProt P29274) (assay: A2a receptor binding affinity, [3H]-NECA radioligand binding test). Conditions: [3H]-NECA 37 nM; membrane from HEK-293 cells transfected with human adenosine A2a receptor.
Sequence of human adenosine A2a receptor (P29274 whole entry): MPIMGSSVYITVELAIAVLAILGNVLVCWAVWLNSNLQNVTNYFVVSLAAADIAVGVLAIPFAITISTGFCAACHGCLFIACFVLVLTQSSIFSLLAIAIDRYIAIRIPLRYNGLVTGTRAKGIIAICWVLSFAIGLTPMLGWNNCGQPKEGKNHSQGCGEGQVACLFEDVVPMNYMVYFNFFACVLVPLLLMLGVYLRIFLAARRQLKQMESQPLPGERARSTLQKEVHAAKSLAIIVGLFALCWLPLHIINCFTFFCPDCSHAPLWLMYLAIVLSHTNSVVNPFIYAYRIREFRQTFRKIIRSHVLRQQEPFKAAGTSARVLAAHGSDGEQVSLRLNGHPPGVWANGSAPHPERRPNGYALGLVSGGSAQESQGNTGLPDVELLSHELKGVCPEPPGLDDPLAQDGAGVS
In short: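 IC50 values (μM) come from displacement of [3H]-NECA, used at 37 nM final, on human A2a receptor membranes from transfected HEK-293 cells. Incubation lasted one hour at room temperature in Tris/MgCl2/EDTA buffer, pH 7.4; filter-bound radioactivity was counted by scintillation.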
With CC(C)[C@H](Nc1nc(N)n2nc(-c3ccco3)nc2n1)C(=O)N1CCN(CC(C)(F)F)CC1 [Example 360, (S)-2-((7-amino-2-(furan-2-yl)-[1,2,4]triazolo[1,5-a][1,3,5]triazin-5-yl)amino)-1-(4-(2,2-difluoropropyl)piperazin-1-yl)-3-methylbutan-1-one] the IC50 was 10 nM. In the case of Nc1nc(N[C@@H](Cc2ccccc2)C(=O)N2CCC(Cc3ccccc3)CC2)nc2nc(-c3ccco3)nn12 [Example 2], the IC50 is reported as 1 nM. Work on CC(C)(F)C(=O)N1CCN(C(=O)[C@@H]2CCCN2c2nc(N)n3nc(-c4ccco4)nc3n2)CC1 [Example 85, 1-(4-((7-amino-2-(furan-2-yl)-[1,2,4]triazolo[1,5-a][1,3,5]triazin-5-yl)-L-prolyl)piperazin-1-yl)-2-fluoro-2-methylpropan-1-one] yielded an IC50 of 28 nM. In the case of Nc1nc(N2CCC[C@H]2C(=O)N2CCN(c3cnccn3)CC2)nc2nc(-c3ccco3)nn12 [Example 126, (S)-(1-(7-amino-2-(furan-2-yl)-[1,2,4]triazolo[1,5-a][1,3,5]triazin-5-yl)pyrrolidin-2-yl)(4-(pyrazin-2-yl)piperazin-1-yl)methanone], the IC50 is reported as 9 nM. Work on CC(C)(O)CC(=O)N1CCN(C(=O)[C@@H](Nc2nc(N)n3nc(-c4ccco4)nc3n2)C2CC2)CC1 [Example 370, (S)-1-(4-(2-((7-amino-2-(furan-2-yl)-[1,2,4]triazolo[1,5-a][1,3,5]triazin-5-yl)amino)-2-cyclopropylacetyl)piperazin-1-yl)-3-hydroxy-3-methylbutan-1-one] yielded an IC50 of 4 nM. C[C@H](Nc1nc(N)n2nc(-c3ccco3)nc2n1)C(=O)N1CCN(CC(C)(C)F)CC1 [Example 119, (S)-2-((7-amino-2-(furan-2-yl)-[1,2,4]triazolo[1,5-a][1,3,5]triazin-5-yl)amino)-1-(4-(2-fluoro-2-methylpropyl)piperazin-1-yl)propan-1-one] showed an IC50 of 9 nM. Work on Nc1nc(N2CCC[C@H]2C(=O)N2CCN(CC(F)(F)C(F)(F)F)CC2)cc2nc(-c3ccco3)nn12 [Example 296, (S)-(1-(5-amino-2-(furan-2-yl)-[1,2,4]triazolo[1,5-c]pyrimidin-7-yl)pyrrolidin-2-yl)(4-(2,2,3,3,3-pentafluoropropyl)piperazin-1-yl)methanone] yielded an IC50 of 0.8 nM. CCC(C)S(=O)(=O)N1CCN(C(=O)[C@@H]2CCCN2c2nc(N)n3nc(-c4ccco4)nc3n2)CC1 (stereo partly drawn) [Example 72, ((S)-1-(7-amino-2-(furan-2-yl)-[1,2,4]triazolo[1,5-a][1,3,5]triazin-5-yl)pyrrolidin-2-yl)(4-(sec-butylsulfonyl)piperazin-1-yl)methanone] showed an IC50 of 1 nM. With CC(F)(F)CN1CCN(C(=O)[C@@H]2CCCN2c2nc(N)c3nc(-c4ccco4)sc3n2)CC1 [Example 259, (S)-(1-(7-amino-2-(furan-2-yl)thiazolo[5,4-d]pyrimidin-5-yl)pyrrolidin-2-yl)(4-(2,2-difluoropropyl)piperazin-1-yl)methanone] the IC50 was 3 nM. CC(C)(F)CN1CCN(C(=O)[C@@H]2CCCN2c2cc3nc(-c4ccco4)nn3c(N)n2)CC1 [Example 352, (S)-(1-(5-amino-2-(furan-2-yl)-[1,2,4]triazolo[1,5-c]pyrimidin-7-yl)pyrrolidin-2-yl)(4-(2-fluoro-2-methylpropyl)piperazin-1-yl)methanone] was tested, and the IC50 was 6 nM. For C[C@H](Nc1nc(N)n2nc(-c3ccco3)nc2n1)C(=O)N1CCN(CC(F)(F)C(F)F)CC1 [Example 318, (S)-2-((7-amino-2-(furan-2-yl)-[1,2,4]triazolo[1,5-a][1,3,5]triazin-5-yl)amino)-1-(4-(2,2,3,3-tetrafluoropropyl)piperazin-1-yl)propan-1-one], the IC50 was 19 nM. Work on Nc1nc(N2CCC[C@H]2C(=O)N2CCC(C3CCN(CCCC(F)(F)F)CC3)CC2)nc2nc(-c3ccco3)nn12 [Example 291, (S)-(1-(7-amino-2-(furan-2-yl)-[1,2,4]triazolo[1,5-a][1,3,5]triazin-5-yl)pyrrolidin-2-yl)(1′-(4,4,4-trifluorobutyl)-[4,4′-bipiperidin]-1-yl)methanone] yielded an IC50 of 5 nM. Nc1nc(N2CCC[C@H]2C(=O)N2CCN(c3ccccc3)CC2)nc2nc(-c3ccco3)nn12 [Example 151, (S)-(1-(7-amino-2-(furan-2-yl)-[1,2,4]triazolo[1,5-a][1,3,5]triazin-5-yl)pyrrolidin-2-yl)(4-phenylpiperazin-1-yl)methanone] showed an IC50 of 13 nM. Work on CC(C)[C@H](Nc1nc(N)n2nc(-c3ccco3)nc2n1)C(=O)N1CCN(Cc2ccccc2)CC1 [Example 58, (S)-2-((7-amino-2-(furan-2-yl)-[1,2,4]triazolo[1,5-a][1,3,5]triazin-5-yl)amino)-1-(4-benzylpiperazin-1-yl)-3-methylbutan-1-one] yielded an IC50 of 15 nM. Cc1ccc(-c2nc3nc(N4CCC[C@H]4C(=O)N4CCN(CC(F)(F)F)C[C@H]4C)nc(N)n3n2)o1 [Example 196, ((S)-1-(7-amino-2-(5-methylfuran-2-yl)-[1,2,4]triazolo[1,5-a][1,3,5]triazin-5-yl)pyrrolidin-2-yl)((R)-2-methyl-4-(2,2,2-trifluoroethyl)piperazin-1-yl)methanone] was tested, and the IC50 was 8 nM. Compound Nc1nc(N2CCC[C@H]2C(=O)N2CCC3(CC2)CN(C(=O)Nc2ccccc2)C3)nc2nc(-c3ccco3)nn12 [Example 183, 7-((7-amino-2-(furan-2-yl)-[1,2,4]triazolo[1,5-a][1,3,5]triazin-5-yl)-L-prolyl)-N-phenyl-2,7-diazaspiro[3.5]nonane-2-carboxamide] has an IC50 of 2 nM. For CC[C@H](Nc1nc(N)n2nc(-c3ccco3)nc2n1)C(=O)N1CCN(CC(C)(C)F)CC1 [Example 338, (S)-2-((7-amino-2-(furan-2-yl)-[1,2,4]triazolo[1,5-a][1,3,5]triazin-5-yl)amino)-1-(4-(2-fluoro-2-methylpropyl)piperazin-1-yl)butan-1-one], the IC50 was 14 nM. Cc1ncc(C(=O)N2CCN(C(=O)[C@@H]3CCCN3c3nc(N)n4nc(-c5ccco5)nc4n3)CC2)s1 [Example 104] gave an IC50 of 11 nM. With Nc1nc(N2CCC[C@H]2C(=O)N2CCC(N3CC(F)(F)C3)CC2)cc2nc(-c3ccco3)nn12 [Example 400, (S)-(1-(5-amino-2-(furan-2-yl)-[1,2,4]triazolo[1,5-c]pyrimidin-7-yl)pyrrolidine-2-yl)(4-(3,3-difluoroazetidin-1-yl)piperidin-1-yl)methanone] the IC50 was 14 nM. In the case of COCCN1CCN(C2CN(C(=O)[C@@H]3CCCN3c3nc(N)n4nc(-c5ccco5)nc4n3)C2)CC1 [Example 405, (S)-(1-(7-amino-2-(furan-2-yl)-[1,2,4]triazolo[1,5-a][1,3,5]triazin-5-yl)pyrrolidin-2-yl)(3-(4-(2-methoxyethyl)piperazin-1-yl)azetidin-1-yl)methanone], the IC50 is reported as 71 nM. Compound Nc1nc(N2CCC[C@H]2C(=O)N2CCN(Cc3ccc(F)cc3F)CC2)nc2nc(-c3ccco3)nn12 [Example 16, (S)-(1-(7-amino-2-(furan-2-yl)-[1,2,4]triazolo[1,5-a][1,3,5]triazin-5-yl)pyrrolidin-2-yl)(4-(2,4-difluorobenzyl)piperazin-1-yl)methanone] has an IC50 of 1.95 nM. Nc1nc(N2CC[C@H]2C(=O)N2CCN(CC(=O)N3CCOCC3)CC2)nc2nc(-c3ccco3)nn12 [Example 65, (S)-2-(4-(1-(7-amino-2-(furan-2-yl)-[1,2,4]triazolo[1,5-a][1,3,5]triazin-5-yl)azetidine-2-carbonyl)piperazin-1-yl)-1-morpholinoethan-1-one] showed an IC50 of 10 nM. CC(F)(F)CN1CCC2(CC1)CN(C(=O)[C@@H]1CCCN1c1nc(N)n3nc(-c4ccco4)nc3n1)C2 [Example 365, (S)-(1-(7-amino-2-(furan-2-yl)-[1,2,4]triazolo[1,5-a][1,3,5]triazin-5-yl)pyrrolidin-2-yl)(7-(2,2-difluoropropyl)-2,7-diazaspiro[3-5]nonan-2-yl)methanone] was tested, and the IC50 was 13 nM. Nc1nc(N2CCC[C@H]2C(=O)N2CCN(C3COC3)CC2)cc2nc(-c3ccco3)nn12 [Example 404] gave an IC50 of 18 nM. In the case of CCC(C)[C@H](Nc1nc(N)n2nc(-c3ccco3)nc2n1)C(=O)N1CCN(CC(F)(F)F)CC1 (stereo partly drawn) [Example 214, (2S)-2-((7-amino-2-(furan-2-yl)-[1,2,4]triazolo[1,5-a][1,3,5]triazin-5-yl)amino)-3-methyl-1-(4-(2,2,2-trifluoroethyl)piperazin-1-yl)pentan-1-one], the IC50 is reported as 5 nM. With CC(C)N1CCN(C(=O)[C@@H]2CCCN2c2nc(N)n3nc(-c4ccco4)nc3n2)CC1 [Example 136, (S)-(1-(7-amino-2-(furan-2-yl)-[1,2,4]triazolo[1,5-a][1,3,5]triazin-5-yl)pyrrolidin-2-yl)(4-isopropylpiperazin-1-yl)methanone] the IC50 was 4 nM. In the case of C[C@@H]1CN(CC(C)(F)F)CCN1C(=O)[C@@H]1CCCN1c1nc(N)n2nc(-c3ccco3)nc2n1 [Example 372, ((S)-1-(7-amino-2-(furan-2-yl)-[1,2,4]triazolo[1,5-a][1,3,5]triazin-5-yl)pyrrolidin-2-yl)((R)-4-(2,2-difluoropropyl)-2-methylpiperazin-1-yl) methanone], the IC50 is reported as 1 nM. CC(C)(O)CC(=O)N1CCN(C(=O)[C@@H]2CCCN2c2cc3nc(-c4ccco4)nn3c(N)n2)CC1 [Example 292, 1-(4-((5-amino-2-(furan-2-yl)-[1,2,4]triazolo[1,5-c]pyrimidin-7-yl)-L-prolyl)piperazin-1-yl)-3-hydroxy-3-methylbutan-1-one] was tested, and the IC50 was 21 nM. In the case of Nc1nc(N2CCC[C@H]2C(=O)N2CCN(CC(F)(F)C(F)(F)C(F)(F)F)CC2)nc2nc(-c3ccco3)nn12 [Example 228, (S)-(1-(7-amino-2-(furan-2-yl)-[1,2,4]triazolo[1,5-a][1,3,5]triazin-5-yl)pyrrolidin-2-yl)(4-(2,2,3,3,4,4,4-heptafluorobutyl)piperazin-1-yl)methanone], the IC50 is reported as 2 nM. Cc1ccc(-c2nc3nc(N4CC[C@H]4C(=O)N4CCN(c5ncccn5)CC4)nc(N)n3n2)o1 [Example 210, (S)-(1-(7-amino-2-(5-methylfuran-2-yl)-[1,2,4]triazolo[1,5-a][1,3,5]triazin-5-yl)azetidin-2-yl)(4-(pyrimidin-2-yl)piperazin-1-yl)methanone] showed an IC50 of 1 nM.
